Source: US11459325B2, “Heterocyclic compound” (Takeda Pharmaceutical Company Limited, priority 2018, dated 2022)

Test system: GBA mutant human fibroblasts GM008760
Assay: Glucosylceramide lowering assay
Format: cell-based
Details: 10 μM test compound, 4 days culture; GlcCer (C16:0)/Cer (C16:0) molar ratio of test compound group relative to DMSO control group x100; smaller value = glucosylceramide lowering
Protocol: Glucosylceramide Lowering Assay
Using GBA mutant human fibroblasts containing mutated glucosylceramidase, the effect of test compounds on glucosylceramide reduction was evaluated.
GBA mutant human fibroblasts GM008760 (Coriel Institute) were seeded in a 96-well multiwell plate at a density of 5,000 cells/100 μL culture solution/well. GlutaMAX (Thermo Fishcer Scientific), penicillin-streptomycin, and Minimum Essential Media (Thermo Fishcer Scientific) supplemented with 15% fetal bovine serum were used as a culture solution. After culturing for 2 days, a 10 mM DMSO solution of the test compound diluted with the culture solution was added to a 96-well plate by 100 μL to adjust a final test compound concentration to 10 μM. After culturing the cells for 4 days in the presence of the test compound, the culture solution was removed, and the cells adhered to the 96-well plate were washed with a phosphate buffer (ThermoFisher Scientific, product number 14190-144). A solvent composed of 50% ethanol and 50% isopropanol was added to the 96-well plate by 100 μL, and the intracellular lipids were dissolved by pipetting. A solution prepared by dissolving N-Octadecanoyl-D35-psychosine (50 ng/mL, Matreya LLC Inc.) as an internal standard in 50% ethanol and 50% isopropanol was added to the sample in an equal volume, and 2.5 μL of the centrifuged supernatant was used as the test compound group.
In the same manner as above, a control group was prepared by using DMSO instead of the 10 mM DMSO solution of the test compound.
For the test compound group and the control group, molar concentrations of glucosylceramide [GlcCer (C16:0)] and ceramide [Cer (C16:0)] were quantified using Rapidfire-MS/MS (API-5000, Turbo-ESI, SRM), and the glucosylceramide lowering effect of the test compound group relative to the control group was evaluated by the following formula. (GlcCer/Cer of test compound group)/(GlcCer/Cer of control group)×100 wherein GlcCer/Cer is the ratio of the molar concentration of glucosylceramide to that of ceramide.
In this test, when the numerical value obtained by the above calculation formula is small, glucosylceramide is metabolized to ceramide by the test compound, or the synthesis of glucosylceramide from ceramide is inhibited by the test compound, that is, it can be said that the test compound has a glucosylceramide lowering effect.

For `Cc1cn(C)c(=O)c2c(C(=O)N3CC4CC4(c4ccc(Cl)cc4)C3)cn(C)c12` (stereo not drawn) [Example 265, 3-((1-(4-chlorophenyl)-3-azabicyclo[3.1.0]hex-3-yl)carbonyl)-1,5,7-trimethyl-1,5-dihydro-4H-pyrrolo[3,2-c]pyridin-4-one], the “10 μM GlcCer/Cer (% of control)” value was 34 % of control.
For `Cc1cn(C)c(=O)c2c(C(=O)N3CC4CC4(c4ccc(OC(F)(F)F)cc4)C3)cnn12` (stereo not drawn) [Example 305, 5,7-dimethyl-3-((1-(4-(trifluoromethoxy)phenyl)-3-azabicyclo[3.1.0]hex-3-yl)carbonyl)pyrazolo[1,5-a]pyrazin-4(5H)-one], the “10 μM GlcCer/Cer (% of control)” value was 47 % of control.
In the case of `Cc1cn(C)c(=O)c2c(C(=O)N3CC4CC4(c4ccc(Cl)cc4)C3)cnn12` (stereo not drawn) [Example 307, 3-((1-(4-chlorophenyl)-3-azabicyclo[3.1.0]hex-3-yl)carbonyl)-5,7-dimethylpyrazolo[1,5-a]pyrazin-4(5H)-one], the “10 μM GlcCer/Cer (% of control)” value is reported as 65 % of control.
With `Cc1cn(C)c(=O)c2c(C(=O)N3CC4CC4(c4ccc(OC(F)(F)F)cc4)C3)cnn12` (stereo not drawn) [Example 309, 5,7-dimethyl-3-((1-(4-(trifluoromethoxy)phenyl)-3-azabicyclo[3.1.0]hex-3-yl)carbonyl)pyrazolo[1,5-a]pyrazin-4(5H)-one] the “10 μM GlcCer/Cer (% of control)” value was 44 % of control.
With `Cc1cn(C)c(=O)c2c(C(=O)N3CC4CC4(c4ccc(OC(F)(F)F)cc4)C3)cnn12` (stereo not drawn) [Example 310, 5,7-dimethyl-3-((1-(4-(trifluoromethoxy)phenyl)-3-azabicyclo[3.1.0]hex-3-yl)carbonyl)pyrazolo[1,5-a]pyrazin-4(5H)-one] the “10 μM GlcCer/Cer (% of control)” value was 68 % of control.

Same assay, conditions: Homo sapiens, Fibroblast, 96 h; 10 μM test compound, 4 days culture; GlcCer (C16:0)/Cer (C16:0) molar ratio of test compound group relative to DMSO control group x100; smaller value = glucosylceramide lowering

Compared with `Cc1cn(C)c(=O)c2c(C(=O)NC3(c4cccc(Cl)c4)CCC3)cn(C)c12` [Example 227, N-(1-(3-chlorophenyl)cyclobutyl)-1,5,7-trimethyl-4-oxo-4,5-dihydro-1H-pyrrolo[3,2-c]pyridine-3-carboxamide], `Cc1cn(C)c(=O)c2c(C(=O)NC3(c4ccc(Cl)cc4)CCC3)cn(C)c12` [Example 228, N-(1-(4-chlorophenyl)cyclobutyl)-1,5,7-trimethyl-4-oxo-4,5-dihydro-1H-pyrrolo[3,2-c]pyridine-3-carboxamide] is lower in activity at 10 µM: 59% for the first, 43% for the second.

First: Cc1cn(C)c(=O)c2c(C(=O)Nc3cccc(OCc4ccccc4)c3)cn(C)c12 [Example 231, N-(3-(benzyloxy)phenyl)-1,5,7-trimethyl-4-oxo-4,5-dihydro-1H-pyrrolo[3,2-c]pyridine-3-carboxamide]
Second: Cc1cn(C)c(=O)c2c(C(=O)Nc3ccccc3OCc3ccccc3)n(C)nc12 [Example 282, N-(2-(benzyloxy)phenyl)-2,5,7-trimethyl-4-oxo-4,5-dihydro-2H-pyrazolo[4,3-c]pyridine-3-carboxamide]
The activity at 10 µM of the first is lower: 59% for the first, 66% for the second.

Going from `Cc1cn(C)c(=O)c2c(C(=O)N3CCC(c4ccc(Cl)cc4)CC3)cn(C)c12` [Example 258, 3-((4-(4-chlorophenyl)piperidin-1-yl)carbonyl)-1,5,7-trimethyl-1,5-dihydro-4H-pyrrolo[3,2-c]pyridin-4-one] to `Cc1cn(C)c(=O)c2c(C(=O)N3CCC(Oc4ccc(OC(F)(F)F)cc4)CC3)cn(C)c12` [Example 288, 1,5,7-trimethyl-3-((4-(4-(trifluoromethoxy)phenoxy)piperidin-1-yl)carbonyl)-1,5-dihydro-4H-pyrrolo[3,2-c]pyridin-4-one], the activity at 10 µM falls from 64% to 27%.

Going from `Cc1cn(C)c(=O)c2c(C(=O)N3CC4CC4(c4ccc5ccccc5c4)C3)cn(C)c12` (stereo not drawn) [Example 261, 1,5,7-trimethyl-3-((1-(2-naphthyl)-3-azabicyclo[3.1.0]hex-3-yl)carbonyl)-1,5-dihydro-4H-pyrrolo[3,2-c]pyridin-4-one] to `Cc1cn(C)c(=O)c2c(C(=O)N3CC4CC4(c4cccc5ccccc45)C3)cn(C)c12` (stereo not drawn) [Example 262, 1,5,7-trimethyl-3-((1-(1-naphthyl)-3-azabicyclo[3.1.0]hex-3-yl)carbonyl)-1,5-dihydro-4H-pyrrolo[3,2-c]pyridin-4-one], the activity at 10 µM falls from 65% to 51%.

First: CCCCO[C@H]1CC[C@H](NC(=O)c2nn(C)c3c(C)cn(C)c(=O)c23)CC1 [Example 277, N-(trans-4-butoxycyclohexyl)-1,5,7-trimethyl-4-oxo-4,5-dihydro-1H-pyrazolo[4,3-c]pyridine-3-carboxamide]
Second: CCCCO[C@H]1CC[C@H](NC(=O)c2cnn3c(C)cn(C)c(=O)c23)CC1 [Example 283, N-(trans-4-butoxycyclohexyl)-5,7-dimethyl-4-oxo-4,5-dihydropyrazolo[1,5-a]pyrazine-3-carboxamide]
The activity at 10 µM of the first is higher: 77% for the first, 75% for the second.

First: Cc1cn(C)c(=O)c2c(C(=O)NCc3noc(-c4ccc(Cl)cc4)n3)cnn12 [Example 286, N-((5-(4-chlorophenyl)-1,2,4-oxadiazol-3-yl)methyl)-5,7-dimethyl-4-oxo-4,5-dihydropyrazolo[1,5-a]pyrazine-3-carboxamide]
Second: Cc1cn(C)c(=O)c2c(C(=O)NC(C)(C)c3ccc(Cl)cc3)cnn12 [Example 306, N-(2-(4-chlorophenyl)propan-2-yl)-5,7-dimethyl-4-oxo-4,5-dihydropyrazolo[1,5-a]pyrazine-3-carboxamide]
The activity at 10 µM of the first is higher: 67% for the first, 51% for the second.

Going from `Cn1cc(C(=O)Nc2ccc(N3CCOCC3)cc2)c2c(=O)n(CC#N)ccc21` [Example 292, 5-(cyanomethyl)-1-methyl-N-(4-(morpholin-4-yl)phenyl)-4-oxo-4,5-dihydro-1H-pyrrolo[3,2-c]pyridine-3-carboxamide] to `COc1ccccc1-n1ccc2c(c(C(=O)Nc3ccc(N4CCOCC4)cc3)cn2C)c1=O` [Example 293, 5-(2-methoxyphenyl)-1-methyl-N-(4-(morpholin-4-yl)phenyl)-4-oxo-4,5-dihydro-1H-pyrrolo[3,2-c]pyridine-3-carboxamide], the activity at 10 µM falls from 89% to 52%.

Compared with `Cn1cc(C(=O)Nc2ccc(N3CCOCC3)cc2)c2c(=O)n(-c3ccccc3OCC(F)(F)F)ccc21` [Example 294, 1-methyl-N-(4-(morpholin-4-yl)phenyl)-4-oxo-5-(2-(2,2,2-trifluoroethoxy)phenyl)-4,5-dihydro-1H-pyrrolo[3,2-c]pyridine-3-carboxamide], `COc1cc(F)ccc1-n1ccc2c(c(C(=O)Nc3ccc(N4CCOCC4)cc3)cn2C)c1=O` [Example 295, 5-(4-fluoro-2-methoxyphenyl)-1-methyl-N-(4-(morpholin-4-yl)phenyl)-4-oxo-4,5-dihydro-1H-pyrrolo[3,2-c]pyridine-3-carboxamide] is higher in activity at 10 µM: 36% for the first, 66% for the second.

First: Cn1cc(C(=O)NC(C)(C)c2ccc(Cl)cc2)c2c(=O)n(CC#N)ccc21 [Example 296, N-(2-(4-chlorophenyl)propan-2-yl)-5-(cyanomethyl)-1-methyl-4-oxo-4,5-dihydro-1H-pyrrolo[3,2-c]pyridine-3-carboxamide]
Second: Cc1cn(C)c(=O)c2c(C(=O)N3CC4CC4(c4ccc(Cl)cc4)C3)cnn12 (stereo not drawn) [Example 304, 3-((1-(4-chlorophenyl)-3-azabicyclo[3.1.0]hex-3-yl)carbonyl)-5,7-dimethylpyrazolo[1,5-a]pyrazin-4(5H)-one]
The activity at 10 µM of the first is lower: 52% for the first, 64% for the second.

`Cc1cn(C)c(=O)c2c(C(=O)N3CCC(Oc4ccc(OC(F)(F)F)cc4)CC3)cnn12` [Example 303, 5,7-dimethyl-3-((4-(4-(trifluoromethoxy)phenoxy)piperidin-1-yl)carbonyl)pyrazolo[1,5-a]pyrazin-4(5H)-one] gave an activity at 10 µM of 60%.
